Assay results reported in patent publication US10363251B2, “(+)-morphinans as antagonists of toll-like receptor 9 and therapeutic uses thereof” (Mallinckrodt LLC, priority 2009, dated 2019).

Columns and labels:
[1] = system: APAP-induced liver toxicity; assay: Acetaminophen (APAP)-induced hepatotoxicity model; assay type: in vivo, mouse; conditions: APAP 500 mg/Kg ip, 12 hours post-APAP
Description: For this, APAP-induced liver toxicity was induced in male C57BL/6 mice aged between 8-10 weeks by a single intraperitoneal (ip) injection of APAP in PBS at a dose of 500 mg/Kg (Imaeda et al. (2009) J. Clin. Invest. 119(2):305-314). The ability of (+)-morphinans to reduce liver toxicity was tested in the following groups:
The (+)-morphinan (or PBS) was either administered as a single subcutaneous (sc) or ip injection concurrent with the APAP injection or one hour prior to the APAP injection.
The mice were sacrificed 12 hours post-APAP treatment. Liver samples were stained with H&E and analyzed for signs of necrosis and hemorrhage. Histology scores were assigned using the standard rating scale. The levels of serum alanine transaminase (ALT) were also measured in each animal using a standard assay.

[2] = biological target: T1, TLR9 (Homo sapiens, UniProt Q9NR96); assay: TLR9 screening of (+)-morphinan library, SEAP reporter in HEK293 cells expressing TLR9; assay type: cell-based; conditions: activator ODN2006; for OD 650 nm (mean ± sd): control (no activator) 0.14, activator 1.42 OD; for inhibition at 0.1 µM: HEK293, read-out: % Inhibition (mean), 100 nM; for inhibition at 10 µM: HEK293, read-out: % Inhibition (mean), 10 μM
T1 construct: expressed in transfected cells; host or cells: HEK293
T1 sequence (Q9NR96 26-1032): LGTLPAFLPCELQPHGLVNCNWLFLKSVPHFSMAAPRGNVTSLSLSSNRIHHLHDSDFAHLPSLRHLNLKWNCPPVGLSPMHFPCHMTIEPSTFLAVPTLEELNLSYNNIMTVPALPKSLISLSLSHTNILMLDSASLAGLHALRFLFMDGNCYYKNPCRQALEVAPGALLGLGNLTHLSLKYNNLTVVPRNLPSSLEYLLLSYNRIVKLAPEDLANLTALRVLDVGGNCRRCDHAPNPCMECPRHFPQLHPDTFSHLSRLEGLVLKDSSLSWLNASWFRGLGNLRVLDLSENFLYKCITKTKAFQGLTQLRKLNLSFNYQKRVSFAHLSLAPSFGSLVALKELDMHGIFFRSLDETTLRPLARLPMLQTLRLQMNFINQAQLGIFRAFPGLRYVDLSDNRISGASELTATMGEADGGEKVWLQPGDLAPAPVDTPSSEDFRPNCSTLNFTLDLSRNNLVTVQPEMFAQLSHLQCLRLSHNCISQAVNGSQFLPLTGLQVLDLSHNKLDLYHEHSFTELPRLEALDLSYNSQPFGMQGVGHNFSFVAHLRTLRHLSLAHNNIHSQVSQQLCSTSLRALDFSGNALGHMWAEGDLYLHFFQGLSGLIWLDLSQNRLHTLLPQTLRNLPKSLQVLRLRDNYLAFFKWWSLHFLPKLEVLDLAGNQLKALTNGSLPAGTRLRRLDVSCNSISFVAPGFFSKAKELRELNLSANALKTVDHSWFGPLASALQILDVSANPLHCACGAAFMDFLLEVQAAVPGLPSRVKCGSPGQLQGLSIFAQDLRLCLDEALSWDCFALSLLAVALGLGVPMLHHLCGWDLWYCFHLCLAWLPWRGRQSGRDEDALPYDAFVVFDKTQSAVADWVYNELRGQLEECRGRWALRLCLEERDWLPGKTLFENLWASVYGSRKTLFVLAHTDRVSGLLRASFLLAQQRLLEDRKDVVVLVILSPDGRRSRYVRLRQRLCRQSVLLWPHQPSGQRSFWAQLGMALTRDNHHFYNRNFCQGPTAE
Procedure, shortened: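 HEK293 cells expressing TLR9 with an NF-κB-inducible SEAP reporter were preincubated with compound at 10 μM and 100 nM for 30 min at 37 °C, then stimulated with ODN2006. SEAP was read as OD 650 nm after 16-20 h, in triplicate.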

[3] = system: Experimental Autoimmune Encephalomyelitis (EAE); conditions: for EAE clinical scores: bid for 20 days, Cmpd II-98 5 mg/kg sc, others 20 mg/kg sc, Prednisolone 4.5 mg/kg ip, vs vehicle control
[4] = biological target: T2, TLR5 (Homo sapiens, UniProt O60602); assay: TLR5 antagonist screening, NF-κB-inducible SEAP reporter in HEK293 cells; assay type: cell-based; conditions: 10 μM; stimulated with Flagellin at 100 ng/ml
T2 construct: expressed in transfected cells; host or cells: HEK293
Description: (§1) Stimulation of TLRs 2, 3, 4, 5, 7, 8, and 9 was determined by assessing activation of the transcription factor NF-κB in HEK293 cells that were engineered to express the corresponding receptors. Assessment of TLR stimulation was based on the use of an NF-κB-inducible secreted alkaline phosphatase (SEAP) reporter system in which the SEAP reporter was under the control of a promoter inducible by NF-κB. Thus, the degree of activation of TLRs can be indirectly quantified spectrophotometrically by measuring the amount of the SEAP reporter that is produced.
(§2) The appropriate TLR-expressing cells were plated in Growth Medium in a 96-well plate (25,000-50,000 cells/well). The cells were stimulated with the appropriate positive control ligand or no ligand was added (negative control). The positive control ligands were: HKLM was used to stimulate TLR2; poly(I:C) was used to stimulate TLR3; LPS was used to stimulate TLR4; Flagellin was used to stimulate TLR5; CL097 was used to stimulate TLR7; CL075 was used to stimulate TLR8; CpG oligodeoxynucleotide (ODN) 2006 was used to stimulate TLR9. To test whether (+)-morphinans could block that activation of the TLR, the cells were pretreated with an antagonist for 30 minutes prior to addition of the positive control ligand. For this, 20 μL of the stock test compound solution (100 μM in H2O) was added to give a total volume of 200 μL. […] After a 16-20 hr incubation period at 37° C. in a CO2 incubator, 20 μL of the cell culture supernatant was added to 180 μL of QUANTI-Blue™ Media (InvivoGen, San Diego, Calif.), and the resulting solutions were incubated at 37° C. for an additional 1-3 hours according to the manufacturer's instructions. The OD's of the samples were then read at 650 nm on a Beckman Coulter AD 340C Absorbance Detector.

[5] = biological target: T3, TLR3 (Homo sapiens, UniProt O15455); assay: TLR3 antagonist screening, NF-κB-inducible SEAP reporter in HEK293 cells; assay type: cell-based; conditions: 10 μM; stimulated with poly(I:C) at 1 μg/ml
T3 construct: expressed in transfected cells; host or cells: HEK293
Description: as §1, §2

[6] = biological target: T4, TLR2 (Homo sapiens, UniProt O60603); assay: TLR2 antagonist screening, NF-κB-inducible SEAP reporter in HEK293 cells; assay type: cell-based; conditions: 10 μM; stimulated with HKLM at 10^8 cell/ml
T4 construct: expressed in transfected cells; host or cells: HEK293
Description: as §1, §2

[7] = biological target: T1, TLR9; assay: TLR9 antagonist screening, NF-κB-inducible SEAP reporter in HEK293 cells; assay type: cell-based; conditions: 10 μM; stimulated with CpG ODN 2006 at 100 ng/ml
Description: as §1, §2

[8] = biological target: T5, TLR4 (Homo sapiens, UniProt O00206); assay: TLR4 antagonist screening, NF-κB-inducible SEAP reporter in HEK293 cells; assay type: cell-based; conditions: 10 μM; stimulated with LPS at 100 ng/ml
T5 construct: expressed in transfected cells; host or cells: HEK293
Description: as §1, §2

[9] = system: chronic constriction injury (CCI) neuropathic pain model; assay: Mechanical allodynia (Von Frey) in chronic constriction injury (Bennett) model, Example 3; assay type: in vivo, rat; conditions: Day 14 post-surgery, 30 and 90 min post-dosing, vs vehicle
Description: Neuropathic pain affects approximately 1% of the U.S. population and is extremely difficult to manage. Usually the pain is chronic, severe, and fails to respond to traditional analgesic drugs. Fortunately, one of the most widely used animal models for neuropathic pain closely mimics the pain endured by patients. In this model, termed the chronic constriction injury (CCI) or Bennett model, four closely spaced ligatures tied loosely around the sciatic nerve of a rat cause demyelination of the nerve, resulting in spontaneous pain, such as prolonged paw elevation and licking of the ligated paw. Induced pain in the nerve-injured limb can be measured using Von Frey filaments, applied to the plantar surface of the paw to test for responses to non-noxious tactile stimulation. The onset of this heightened mechanical allodynia is quite rapid and it persists for 2-3 months.
In this example, the CCI ligation was performed on the left sciatic nerve in three groups of rats. Von Frey testing of mechanical allodynia was performed on both paws on Day 14 to determine the analgesic efficacy of the test agent. The testing was performed pre-dosing, and at 30 and 90 minutes post-dosing.
The animals were allocated to treatment groups based on their baseline Von Frey data, measured prior to surgery. The mechanical allodynia scores for each group were reviewed to ensure that the mean values and standard deviation satisfied the assumption of homogeneity. Thirty-one (31) animals were used on the study. Thirty (30) animals were initially allocated to treatment groups, and the remaining […] animals were held as spares. One spare was then used to replace an animal that died during surgery. Body weights were taken one day after arrival, prior to surgery and weekly thereafter. On Day 14, after the final behavioral testing, the animals were euthanized by carbon dioxide asphyxiation. No necropsy was performed nor tissues collected.
All surgeries were performed under aseptic conditions. Prior to surgery, the rats were sedated using inhaled Isoflurane anesthetic. The left leg was shaved and prepped. The common sciatic nerve was exposed and freed from adherent tissue at mid-thigh by separating the muscle (biceps femoris) by blunt dissection. Proximal to the sciatic nerve's trifurcation; approximately 7 mm of nerve was freed from the adhering tissue. Four ligatures, approximately 1 mm apart, were tied loosely around the nerve using 6.0 chromic catgut. Each of the sutures was tied loosely with a square knot around the sciatic nerve. A brief twitch in the muscle surrounding the exposure was an indicator of the desired degree of constriction. The site was then closed using the appropriate suture material. Post-operative care and observations were carried out until the animal recovered consciousness.
The animals underwent a series of behavioral testing for neuropathic pain assessment. A Von Frey test of mechanical allodynia was performed on both hind paws prior to surgery to achieve a baseline measurement for randomization and then following surgery on Day 14 (test article efficacy) according to Table 4.
Twice prior to surgery, the animals were acclimated to the allodynia apparatus. This habituated the rats to the testing devices to familiarize them with the apparatus so they were calm at the time of testing. […] Animals were first habituated to the testing chamber so that they were calm enough for their pain threshold to be assessed. […]

[10] = Dissolution of compound in dosing vehicle (EAE study); assay type: physicochemical; conditions: 20 mg/kg in sterile dd H2O; delivered as a suspension
Description: It is not known whether the suspension dissolved adequately in the body to provide sufficient plasma concentration for efficacy.

T2 sequence (O60602 21-858, species assumed): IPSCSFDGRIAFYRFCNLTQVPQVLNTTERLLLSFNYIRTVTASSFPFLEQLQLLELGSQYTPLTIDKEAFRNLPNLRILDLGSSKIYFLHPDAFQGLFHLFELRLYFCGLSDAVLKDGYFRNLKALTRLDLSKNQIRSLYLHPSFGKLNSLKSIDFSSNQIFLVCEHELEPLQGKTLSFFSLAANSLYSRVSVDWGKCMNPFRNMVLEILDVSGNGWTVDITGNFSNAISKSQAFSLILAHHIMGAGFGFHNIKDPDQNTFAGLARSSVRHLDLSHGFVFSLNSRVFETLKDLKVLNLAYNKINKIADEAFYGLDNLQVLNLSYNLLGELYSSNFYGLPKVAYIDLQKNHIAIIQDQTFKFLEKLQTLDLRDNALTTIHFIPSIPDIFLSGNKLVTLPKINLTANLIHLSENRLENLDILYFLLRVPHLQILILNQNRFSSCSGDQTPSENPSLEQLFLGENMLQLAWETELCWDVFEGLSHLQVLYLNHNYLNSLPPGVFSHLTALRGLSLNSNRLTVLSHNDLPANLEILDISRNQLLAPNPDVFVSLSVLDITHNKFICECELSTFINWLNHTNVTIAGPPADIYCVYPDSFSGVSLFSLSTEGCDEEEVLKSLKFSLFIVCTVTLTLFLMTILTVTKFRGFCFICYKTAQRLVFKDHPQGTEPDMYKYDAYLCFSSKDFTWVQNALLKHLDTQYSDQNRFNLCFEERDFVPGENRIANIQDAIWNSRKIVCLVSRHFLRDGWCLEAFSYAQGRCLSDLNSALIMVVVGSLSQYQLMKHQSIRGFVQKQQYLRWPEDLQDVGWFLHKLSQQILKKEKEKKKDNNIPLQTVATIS
T4 sequence (O60603 21-784, species assumed): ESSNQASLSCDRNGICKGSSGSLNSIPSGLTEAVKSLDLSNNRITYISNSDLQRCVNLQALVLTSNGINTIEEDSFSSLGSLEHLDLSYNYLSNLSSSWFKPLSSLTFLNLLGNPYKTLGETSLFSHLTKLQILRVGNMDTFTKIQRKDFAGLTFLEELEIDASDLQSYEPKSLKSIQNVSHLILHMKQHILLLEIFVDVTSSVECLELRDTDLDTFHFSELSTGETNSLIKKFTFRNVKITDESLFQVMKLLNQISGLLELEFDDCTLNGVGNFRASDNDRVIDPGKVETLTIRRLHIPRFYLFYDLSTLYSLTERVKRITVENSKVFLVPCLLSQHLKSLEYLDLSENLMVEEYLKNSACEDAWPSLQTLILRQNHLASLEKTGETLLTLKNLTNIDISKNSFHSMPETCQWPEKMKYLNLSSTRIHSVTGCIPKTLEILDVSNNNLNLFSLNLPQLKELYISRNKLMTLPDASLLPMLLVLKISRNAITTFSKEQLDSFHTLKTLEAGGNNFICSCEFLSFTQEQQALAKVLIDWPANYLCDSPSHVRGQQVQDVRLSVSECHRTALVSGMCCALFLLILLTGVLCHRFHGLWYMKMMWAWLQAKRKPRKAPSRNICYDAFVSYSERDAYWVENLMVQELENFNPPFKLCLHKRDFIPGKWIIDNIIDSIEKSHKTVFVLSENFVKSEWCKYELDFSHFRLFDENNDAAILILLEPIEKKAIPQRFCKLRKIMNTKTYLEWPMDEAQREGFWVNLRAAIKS
T5 sequence (O00206 24-839, species assumed): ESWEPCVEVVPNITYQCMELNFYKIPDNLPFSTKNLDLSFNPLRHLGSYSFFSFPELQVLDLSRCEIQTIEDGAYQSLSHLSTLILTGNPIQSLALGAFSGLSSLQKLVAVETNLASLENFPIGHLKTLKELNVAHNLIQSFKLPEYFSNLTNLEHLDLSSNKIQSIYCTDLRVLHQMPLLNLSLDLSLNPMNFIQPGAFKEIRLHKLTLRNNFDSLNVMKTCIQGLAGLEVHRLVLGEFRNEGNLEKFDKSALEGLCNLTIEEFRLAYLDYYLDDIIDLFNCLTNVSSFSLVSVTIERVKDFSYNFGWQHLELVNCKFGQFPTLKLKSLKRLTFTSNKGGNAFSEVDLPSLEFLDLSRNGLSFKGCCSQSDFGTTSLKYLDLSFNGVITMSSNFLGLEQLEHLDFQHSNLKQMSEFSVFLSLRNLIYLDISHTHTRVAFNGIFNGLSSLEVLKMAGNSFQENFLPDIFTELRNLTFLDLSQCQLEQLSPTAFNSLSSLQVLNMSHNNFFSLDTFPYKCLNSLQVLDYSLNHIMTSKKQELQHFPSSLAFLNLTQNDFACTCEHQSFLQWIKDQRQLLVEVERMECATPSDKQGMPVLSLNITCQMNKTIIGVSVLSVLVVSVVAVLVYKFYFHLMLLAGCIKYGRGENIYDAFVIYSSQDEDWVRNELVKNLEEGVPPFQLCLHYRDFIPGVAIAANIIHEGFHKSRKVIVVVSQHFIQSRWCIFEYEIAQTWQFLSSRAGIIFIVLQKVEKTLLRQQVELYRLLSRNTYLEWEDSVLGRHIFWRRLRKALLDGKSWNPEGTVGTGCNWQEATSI
T5 sequence (Q9Y6Y9 17-160 partner limits assumed, species assumed): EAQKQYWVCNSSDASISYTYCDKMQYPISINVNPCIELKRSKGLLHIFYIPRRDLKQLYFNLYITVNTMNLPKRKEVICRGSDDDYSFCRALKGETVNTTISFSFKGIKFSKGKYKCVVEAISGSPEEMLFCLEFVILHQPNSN
T3 sequence (O15455 24-904, species assumed): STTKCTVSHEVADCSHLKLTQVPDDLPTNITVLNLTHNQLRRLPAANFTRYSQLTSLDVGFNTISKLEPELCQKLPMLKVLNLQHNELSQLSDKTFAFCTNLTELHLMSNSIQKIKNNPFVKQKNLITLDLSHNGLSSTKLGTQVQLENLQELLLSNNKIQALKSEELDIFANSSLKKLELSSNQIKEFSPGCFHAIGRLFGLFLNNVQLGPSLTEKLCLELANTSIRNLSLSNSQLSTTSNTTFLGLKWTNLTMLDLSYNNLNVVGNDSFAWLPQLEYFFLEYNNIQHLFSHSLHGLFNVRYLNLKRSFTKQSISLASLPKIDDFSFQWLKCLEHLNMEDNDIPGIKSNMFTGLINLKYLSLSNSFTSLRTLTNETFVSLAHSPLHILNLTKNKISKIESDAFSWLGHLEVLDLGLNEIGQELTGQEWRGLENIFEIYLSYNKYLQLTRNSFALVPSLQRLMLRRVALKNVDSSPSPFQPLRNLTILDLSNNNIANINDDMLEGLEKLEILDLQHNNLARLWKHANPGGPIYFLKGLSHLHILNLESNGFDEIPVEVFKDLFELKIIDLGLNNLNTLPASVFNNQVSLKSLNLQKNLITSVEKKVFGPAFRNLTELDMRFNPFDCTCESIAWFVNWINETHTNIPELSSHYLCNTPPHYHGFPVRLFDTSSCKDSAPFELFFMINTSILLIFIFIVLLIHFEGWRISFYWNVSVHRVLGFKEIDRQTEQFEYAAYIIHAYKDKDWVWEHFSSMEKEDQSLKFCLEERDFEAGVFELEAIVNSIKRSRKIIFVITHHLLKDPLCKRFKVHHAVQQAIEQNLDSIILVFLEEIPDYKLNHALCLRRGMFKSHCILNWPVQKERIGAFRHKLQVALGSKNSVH

| Compound | OD 650 nm (mean ± sd) ([2]; 100 nM) | OD 650 nm (mean ± sd) ([2]; 10 μM) | inhibition at 0.1 µM [2] | inhibition at 10 µM [2] | EAE clinical scores [3] | other results |
| --- | --- | --- | --- | --- | --- | --- |
| COc1ccc2c3c1O[C@@H]1C(=O)CC[C@@H]4[C@H](C2)N(CC2CC2)CC[C@@]314 [II-24] | 0.65 ± 0.04 OD | 0.09 ± 0.01 OD | 54% | 94% | did not improve EAE | Protection from APAP-induced toxicity ([1]; test doses and timing per Table 6): None of compounds II-24, II-93, or III-2 provided any protection; Liver histology scores (necrosis and hemorrhage) ([1]; vs APAP alone): about the same as those only exposed to APAP |
| O=C1CC[C@]2(O)[C@@H]3Cc4ccc(O)c5c4[C@]2(CCN3CC2CC2)[C@@H]1O5 [(+)-Naltrexone, (+)-naltrexone] | – | – | – | – | – | Average % Inhibition at TLR5 [4]: 22%; Average % Inhibition at TLR3 [5]: 22%; Average % Inhibition at TLR2 [6]: 21%; Average % Inhibition at TLR9 [7]: 51%; Average % Inhibition at TLR4 [8]: 24% |
| C[C@]12C=CC(=O)C=C1CC[C@@H]1[C@@H]2[C@@H](O)C[C@@]2(C)[C@H]1CC[C@]2(O)C(=O)CO [Prednisolone, reference compound] | – | – | – | – | significantly reduced EAE clinical scores | – |
| NCC1(CC(=O)O)CCCCC1 [Gabapentin] | – | – | – | – | – | Mechanical allodynia (50% allodynia threshold), left (affected) paw ([9]; (+)-naloxone.HCl 66.7 mg/kg S.C., Gabapentin 100 mg/kg I.P.): effective at significantly reducing the allodynia; Mechanical allodynia (50% allodynia threshold), right (unaffected) paw [9]: higher threshold |
| COC1=CC=C2[C@@H]3Cc4ccc(OC)c5c4[C@]2(CCN3)[C@@H]1O5 [II-38] | 0.86 ± 0.01 OD | 0.12 ± 0.01 OD | 40% | 92% | did not improve EAE | Dissolution in dosing vehicle [10]: did not dissolve into a solution |
| COC1=CCC2[C@@H]3Cc4ccc(OC)c5c4[C@]2(CCN3)[C@@H]1O5 (some centres unmarked) [II-98] | 1.02 ± 0.02 OD | 0.56 ± 0.03 OD | 28% | 60% | – | Acute toxicity ([3]; 20 mg/kg bid, subcutaneous): acute toxicity was observed |
